Measurements: US20250205342A1, “IRAK DEGRADERS AND USES THEREOF” (Kymera Therapeutics, Inc., priority 2022, published 2025)

Experiments:
IRAK4 [1] = molecular target: T1, IRAK4 (Homo sapiens, UniProt Q9NWZ3); assay: IRAK4 degradation in OCI-LY10 (MSD, Meso Scale Discovery); type: cell-based; set-up: endogenous in cells; host or cells: OCI-LY10; conditions: OCI-LY10 cells, 24 h
T1 sequence (Q9NWZ3 1-460): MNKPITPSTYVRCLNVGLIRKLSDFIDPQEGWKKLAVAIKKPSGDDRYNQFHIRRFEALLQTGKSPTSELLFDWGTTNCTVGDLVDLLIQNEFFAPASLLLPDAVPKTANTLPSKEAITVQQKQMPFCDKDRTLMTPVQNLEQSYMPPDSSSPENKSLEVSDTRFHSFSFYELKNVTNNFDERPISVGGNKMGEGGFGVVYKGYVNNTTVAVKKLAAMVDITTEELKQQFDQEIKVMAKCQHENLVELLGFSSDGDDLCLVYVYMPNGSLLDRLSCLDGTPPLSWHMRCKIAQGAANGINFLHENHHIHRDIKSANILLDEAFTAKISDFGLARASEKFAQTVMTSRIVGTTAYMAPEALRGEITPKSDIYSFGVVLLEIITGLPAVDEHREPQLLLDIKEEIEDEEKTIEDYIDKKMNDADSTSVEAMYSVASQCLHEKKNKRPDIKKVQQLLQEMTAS
Experimental: Degradation of IRAK4 in OCI-LY10 was quantitatively measured using Meso Scale Discovery technology. OCI-LY10 cells were seeded in 96-well plates (Corning 3799) with a density of 300,000 cells per well in 100 μL fresh media. Compounds were then added to the assay plates with a final top concentration of 1 to 10 μM in a 1:3 dilution series with total of 8 doses. The assay plates were then incubated for 4 to 24 hours at 37° C. under 5% CO2. The assay plates were then centrifuged for 5 minutes and the cell pellets were treated with 100 μL/well RIPA lysis buffer (Boston BioProducts BP-115D) with proteinase inhibitors. To prepare MSD assay plates (Meso Scale Discovery Catalog number L15XA-3), the plates were coated with 2 ug/mL capture antibody (mouse Anti-IRAK4 antibody [2H9], ab119942) in PBS, at 40 μL/well. The plates were then incubated overnight at […], washed 3 times with 150 μL/well TBST buffer (Cell Signaling Technology, Catalog number 9997S) and blocked with 150 μL/well blocking buffer (Meso Scale Discovery Catalog number R^93BA-4). Cell lysates were then added to MSD assay plates and the plates were incubated at room temperature for 1 hour. The plates were then washed 3 times with 150 μL/well TBST buffer and 25 μL/well primary detection antibody (rabbit Anti-IRAK4 antibody [Y279], from Abcam. Catalog number ab32511, 1 μg/mL). The assay plates were then incubated at room temperature for 1 hour, washed 3 times with 150 μL/well TBST buffer and 25 μL/well secondary detection antibody, SULFO-TAG anti-rabbit antibody were added (anti-rabbit antibody from Meso Scale Discovery, Catalog number R^32AB-1, 1 μg/mL). The assay plates were then incubated at room temperature for 1 hour, washed 3 times with 150 μL/well TBST buffer, and 150 μL/well MSD reading buffer (Meso Scale Discovery catalog number R^92TC-2) was added. The plates were then analyzed by a MSD reader (Meso Scale Discovery, Model Quick Plex SQ 120). The data was then analyzed by software Prism 7.0 from GraphPad and the dose-depended IRAK4 degradation were fit using a three-parameter logistic equation to calculate DC50.
(§1) IRAK4 MSD degradation in OCI-LY10 results at 4 and 24 hrs and hPBMC at 20 hrs for compounds of the invention are presented in Table 3. The letter codes for IRAK4 DC50 include: A (<0.1 μM), B (0.1-1.0 μM), C(>1.0-10.0 μM), D (>10.0 μM or not determined).

IRAK4 [2] = molecular target: T1, IRAK4; assay: hPBMC IRAK4 degradation flow assay (monocytes); type: cell-based; set-up: endogenous in cells; host or cells: human PBMCs (monocytes, CD14 positive gate); conditions: CD14 positive monocytes, 20 h, read-out: hPBMC monocyte DC50 at 20 h
Experimental: In the hPBMC IRAK4 degradation flow assay, frozen PBMCs were thawed into RPMI with 10% FBS and allowed to recover. On the same day as thawed, PBMCs were plated in 96 well plate, 90 μL per well. Compound plates were prepared and a 10 point, 5-fold dilution was performed with a final DMSO concentration of 0.1%. Compound 10 μL per well was added, sealed and incubated at 37° C., 5% CO2 for 20 hours (for 4 hour treatment, compounds were prepared and added the following day). Following the treatment incubation period (day 1), 1.6% PFA was added to PBMC plate and placed on plate shaker for 30 seconds and incubated for 10 mins at room temperature. Cells were spun down and washed two times with PBS/0.5% BSA, aspirated to pellet and placed into −80° C. freezer until further processing for flow. On the flow run day, PBMC plates were thawed and samples were transferred to PCR plates. The pre-perm staining cocktail (CD3 Ax488/CD8 BUV805/CD14 BUV395/CD16/56 BV711/CD19 BV785) was added to samples and incubated for 30 minutes at room temperature. Samples were washed two times and permeabilized with methanol for 10 minutes at 4° C. Samples were washed two times and the post-perm staining cocktail (CD4 PE/IRAK4 Ax647 BD #560315) was added and incubated for 30 minutes at room temperature. Samples were washed two times with PBS/BSA and run on a BD LSRFortessa. Mononuclear cells are gated by SSCH/FSCH and single cells. Monocytes are then gated through CD14 positive gate and lymphocytes are gated through CD14 negative gate. To determine absolute DC50 and max degradation values, MFI values were normalized to DMSO max and 20 hour 10 µM min control. Twenty hour dose curves were calculated using a 4 parameter logistic regression curve fit, no constraints (Top doses were removed if hook effects were observed and the bottom was constrained to 0).
as §1

Row | DC50 (IRAK4 [1]) | DC50 (IRAK4 [2]) | SMILES
1 | > 10 µM | > 10 µM | CC(C)(O)c1cc2nn([C@H]3CC[C@H](CNCCCCCCCCCc4ccc5c(-c6cccc(C(=O)Nc7ccc(=O)n(CC(=O)O)c7)c6)cncc5c4)CC3)cc2cc1NC(=O)c1cccc(C(F)(F)F)n1 [Compound I-53]
2 | > 10 µM | 1 to 10 µM | CCOC(=O)Cn1cc(NC(=O)[C@H]2CCCN(c3cncc(OCCNC[C@H]4CC[C@H](n5cc(NC(=O)c6cnn7ccc(N8C[C@H]9C[C@@H]8CO9)nc67)c(C(F)F)n5)CC4)c3)C2)ccc1=O [Compound I-48]
3 | > 10 µM | > 10 µM | CCOC(=O)Cn1cc(NC(=O)[C@H]2CCCN(c3cncc(OCCOCCOCCOCCOCCNC[C@H]4CC[C@H](n5cc(NC(=O)c6cnn7ccc(N8C[C@H]9C[C@@H]8CO9)nc67)c(C(F)F)n5)CC4)c3)C2)ccc1=O [Compound I-47]
4 | > 10 µM | > 10 µM | COc1cc2nn([C@H]3CC[C@H](CNCCNc4cncc(N5CCC[C@H](C(=O)Nc6ccc(=O)n(CC(=O)O)c6)C5)c4)CC3)cc2cc1NC(=O)c1cccc(C(F)(F)F)n1 [Compound I-7]
5 | > 10 µM | > 10 µM | COc1cc(-c2ccc(F)c(CCCCCCCCCNC[C@H]3CC[C@H](n4cc5cc(NC(=O)c6cccc(C(F)(F)F)n6)c(C(C)(C)O)cc5n4)CC3)c2)ccc1C(=O)Nc1ccc(=O)n(CC(=O)O)c1 [Compound I-63]
6 | > 10 µM | < 0.1 µM | CCOC(=O)Cn1cc(NC(=O)[C@H]2CCCN(c3cncc(CCCCCCNC[C@H]4CC[C@H](n5cc6cc(NC(=O)c7cccc(C(F)(F)F)n7)c(OC)cc6n5)CC4)c3)C2)ccc1=O [Compound I-42]
7 | 1 to 10 µM | > 10 µM | CCOC(=O)Cn1cc(NC(=O)c2ccc(-c3ccc(F)c(CCCCCCCCCNC[C@H]4CC[C@H](n5cc6cc(NC(=O)c7cccc(C(F)(F)F)n7)c(C(C)(C)O)cc6n5)CC4)c3)cc2OC)ccc1=O [Compound I-64]
8 | > 10 µM | > 10 µM | O=C(O)Cn1cc(NC(=O)c2cc(CCCNC[C@H]3CC[C@H](n4cc(NC(=O)c5cnn6ccc(N7C[C@H]8C[C@@H]7CO8)nc56)c(C(F)F)n4)CC3)cc(-c3cccnc3)c2)ccc1=O [Compound I-76]
9 | > 10 µM | < 0.1 µM | CCOC(=O)Cn1cc(NC(=O)[C@H]2CCCN(c3cncc(C#CCOC4CCN(C[C@H]5CC[C@H](n6cc7cc(NC(=O)c8cccc(C(F)(F)F)n8)c(OC)cc7n6)CC5)CC4)c3)C2)ccc1=O [Compound I-22]
10 | > 10 µM | 1 to 10 µM | CCOC(=O)Cn1cc(NC(=O)[C@H]2CCCN(c3cncc(C4CCN(C[C@H]5CC[C@H](n6cc(NC(=O)c7cnn8ccc(N9C[C@H]%10C[C@@H]9CO%10)nc78)c(C(F)F)n6)CC5)CC4)c3)C2)ccc1=O [Compound I-18]
11 | > 10 µM | 1 to 10 µM | O=C(O)Cn1cc(NC(=O)[C@H]2CCCN(c3cncc(OCCOCCOCCOCCOCCNC[C@H]4CC[C@H](n5cc(NC(=O)c6cnn7ccc(N8C[C@H]9C[C@@H]8CO9)nc67)c(C(F)F)n5)CC4)c3)C2)ccc1=O [Compound I-37]
12 | > 10 µM | > 10 µM | CCOC(=O)Cn1cc(NC(=O)[C@H]2CCCN(c3cncc(N4CCC(CN(C)C[C@H]5CC[C@H](n6cc(NC(=O)c7cnn8ccc(N9C[C@H]%10C[C@@H]9CO%10)nc78)c(C(F)F)n6)CC5)CC4)c3)C2)ccc1=O [Compound I-34]
13 | > 10 µM | > 10 µM | CCOC(=O)Cn1cc(NC(=O)c2cc(CCCCCCNC[C@H]3CC[C@H](n4cc(NC(=O)c5cnn6ccc(N7C[C@H]8C[C@@H]7CO8)nc56)c(C(F)F)n4)CC3)cc(-c3cccnc3)c2)ccc1=O [Compound I-98]
14 | > 10 µM | > 10 µM | O=C(O)Cn1cc(NC(=O)c2cc(CCCCCCCCCNC[C@H]3CC[C@H](n4cc(NC(=O)c5cnn6ccc(N7C[C@H]8C[C@@H]7CO8)nc56)c(C(F)F)n4)CC3)cc(-c3cccnc3)c2)ccc1=O [Compound I-74]
15 | 0.1 to 1 µM | 0.1 to 1 µM | CCOC(=O)Cn1cc(NC(=O)c2cccc3c2ccn3CCCCCCCCCNC[C@H]2CC[C@H](n3cc4cc(NC(=O)c5cccc(C(F)(F)F)n5)c(C(C)(C)O)cc4n3)CC2)ccc1=O [Compound I-69]
16 | > 10 µM | 1 to 10 µM | CCOC(=O)Cn1cc(NC(=O)[C@H]2CCCN(c3cncc(OCCOCCOCCNC[C@H]4CC[C@H](n5cc(NC(=O)c6cnn7ccc(N8C[C@H]9C[C@@H]8CO9)nc67)c(C(F)F)n5)CC4)c3)C2)ccc1=O [Compound I-45]
17 | > 10 µM | > 10 µM | CC(C)(O)c1cc2nn([C@H]3CC[C@H](CNCCCCCCc4cccc5c(-c6cccc(C(=O)Nc7ccc(=O)n(CC(=O)O)c7)c6)cncc45)CC3)cc2cc1NC(=O)c1cccc(C(F)(F)F)n1 [Compound I-51]
18 | > 10 µM | 1 to 10 µM | COc1cc2nn([C@H]3CC[C@H](CNCCOCCOCCNc4cncc(N5CCC[C@H](C(=O)Nc6ccc(=O)n(CC(=O)O)c6)C5)c4)CC3)cc2cc1NC(=O)c1cccc(C(F)(F)F)n1 [Compound I-1]
19 | 1 to 10 µM | > 10 µM | CCOC(=O)Cn1cc(NC(=O)c2ccc(-c3ccc(F)c(CCCCCCCCCNC[C@H]4CC[C@H](n5cc(NC(=O)c6cnn7ccc(N8C[C@H]9C[C@@H]8CO9)nc67)c(C(F)F)n5)CC4)c3)cc2OC)ccc1=O [Compound I-66]
20 | > 10 µM | > 10 µM | CCOC(=O)Cn1cc(NC(=O)[C@H]2CCCN(c3cncc(NCCNC[C@H]4CC[C@H](n5cc6cc(NC(=O)c7cccc(C(F)(F)F)n7)c(OC)cc6n5)CC4)c3)C2)ccc1=O [Compound I-14]
21 | > 10 µM | > 10 µM | O=C(O)Cn1cc(NC(=O)[C@H]2CCCN(c3cncc(CCCCCCNC[C@H]4CC[C@H](n5cc(NC(=O)c6cnn7ccc(N8C[C@H]9C[C@@H]8CO9)nc67)c(C(F)F)n5)CC4)c3)C2)ccc1=O [Compound I-27]
22 | > 10 µM | > 10 µM | O=C(O)Cn1cc(NC(=O)[C@H]2CCCN(c3cncc(CCNC[C@H]4CC[C@H](n5cc(NC(=O)c6cnn7ccc(N8C[C@H]9C[C@@H]8CO9)nc67)c(C(F)F)n5)CC4)c3)C2)ccc1=O [Compound I-28]
23 | > 10 µM | > 10 µM | CCOC(=O)Cn1cc(NC(=O)[C@H]2CCCN(c3cncc(OCCOCCOCCNC[C@H]4CC[C@H](n5cc6cc(NC(=O)c7cccc(C(F)(F)F)n7)c(OC)cc6n5)CC4)c3)C2)ccc1=O [Compound I-41]
